# Data taken from patent US10760052B2, “Method of inhibiting tau phosphorylation” (priority 2012, dated 2020).
# Where two headings read alike, the source gives them in different places.
# Biological target: T1, mu opiate receptor (MOR) (Rattus norvegicus, UniProt P33535)
# T1 construct: from tissue; host or cells: striatum (membrane preparation)
# Type: biochemical
# Settings: for Concentration of FLNA-Binding Compound as Agonist 0.1 μM / Concentration of FLNA-Binding Compound as Agonist 1 μM / Concentration of FLNA-Binding Compound as Agonist 1 μM + BFNA: [35S]GTPγS binding to Gαo in striatal membranes; for Concentration of FLNA-Binding Compound as Agonist 0.1 μM: compound 0.1 μM; for Concentration of FLNA-Binding Compound as Agonist 1 μM: compound 1 μM; for Concentration of FLNA-Binding Compound as Agonist 1 μM + BFNA: compound 1 μM plus 1 μM β-funaltrexamine (MOR antagonist)
# [1] = 0.1 μM compound, striatal membranes, Series C-2
# [2] = 1 μM compound + 1 μM β-FNA (selective MOR antagonist), Series C-2
# [3] = 1 μM compound, striatal membranes, Series C-2
# T1 sequence (P33535 whole entry): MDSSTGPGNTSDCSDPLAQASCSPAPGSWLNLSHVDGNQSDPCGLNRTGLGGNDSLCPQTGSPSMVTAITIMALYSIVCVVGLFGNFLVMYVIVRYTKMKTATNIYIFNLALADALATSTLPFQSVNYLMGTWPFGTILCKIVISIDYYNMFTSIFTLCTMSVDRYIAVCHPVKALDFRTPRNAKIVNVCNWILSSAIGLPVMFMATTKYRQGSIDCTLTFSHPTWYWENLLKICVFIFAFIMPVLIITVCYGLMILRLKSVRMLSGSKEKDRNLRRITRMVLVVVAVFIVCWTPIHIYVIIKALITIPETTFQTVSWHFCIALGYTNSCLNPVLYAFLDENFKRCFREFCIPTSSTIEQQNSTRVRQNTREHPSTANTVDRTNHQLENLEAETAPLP
Structure (SMILES),% DAMGO (0.1 μM) [%],% DAMGO (1 μM) [%],% DAMGO + BFNA [%],"[35S]GTPγS binding, FLNA-Binding Compound as Agonist at 0.1 μM [%]","[35S]GTPγS binding, FLNA-Binding Compound as Agonist at 1 μM [%]","[35S]GTPγS binding, FLNA-Binding Compound as Agonist at 1 μM + BFNA [%]",Concentration of FLNA-Binding Compound as Agonist 0.1 μM [%],Concentration of FLNA-Binding Compound as Agonist 1 μM [%],Concentration of FLNA-Binding Compound as Agonist 1 μM + BFNA [%],"[35S]GTPγS binding, FLNA-Binding Compound as Agonist at 0.1 μM [1] [%]","[35S]GTPγS binding, FLNA-Binding Compound as Agonist at 1 μM + BFNA [2] [%]","[35S]GTPγS binding, FLNA-Binding Compound as Agonist at 1 μM [3] [%]"
CS(=O)(=O)c1ccc(S(=O)(=O)N2CCOC23CCNCC3)cc1 [Compound C0116M],136.6,122.0,313.4,258.4,302.8,152.0,,,,,,
CC1CCC(C(C)C)C(OCC(O)CN2CCCC2)C1 (stereo not drawn) [Compound A0001],63.1,78.9,83.8,,,,94.3,181.7,22.2,,,
COc1c2c(cc3c1C(CC(=O)c1cccc(C(F)(F)F)c1)[N+](C)(C)CC3)OCO2 (stereo not drawn) [Compound B0006],44.8,47.5,29.0,,,,77.0,131.3,18.6,,,
CC1CCC(C(C)C)C(OCC(O)CN2CCN(C)CC2)C1 (stereo not drawn) [Compound A0009],39.8,48.7,142.9,,,,70.2,126.4,93.9,,,
COc1ccc(C(=O)CC2c3c(cc4c(c3OC)OCO4)CC[N+]2(C)C)c(O)c1 (stereo not drawn) [Compound B0033],77.6,69.2,95.4,,,,149.3,188.9,41.9,,,
O=S(=O)(c1cccc(OC(F)(F)F)c1)N1CCC2(CC1)OCCN2S(=O)(=O)c1cccc(OC(F)(F)F)c1 [Compound C0005],105.4,85.1,319.4,,,,180.4,227.2,166.4,,,
COc1ccc(OCC(O)CN2CC(C)OC(C)C2)cc1 (stereo not drawn) [Compound A0048],119.1,109.7,226.3,,,,233.7,302.9,167.2,,,
O=S(=O)(c1ccc(Oc2ccccc2)cc1)N1CCC2(CC1)OCCN2S(=O)(=O)c1ccc(Oc2ccccc2)cc1 [Compound C0149M],122.0,124.8,102.3,,,,209.8,406.7,93.4,,,
COc1ccc(CCC(O)CC2c3c(cc4c(c3OC)OCO4)CC[N+]2(C)C)cc1 (stereo not drawn) [Compound B0049],102.8,143.1,506.5,,,,181.6,364.0,133.2,,,
CC1CCC(C(C)C)C(OCC(O)CN2CCCC2=O)C1 (stereo not drawn) [Compound A0035],61.5,57.5,119.9,,,,120.6,158.8,88.6,,,
COc1ccc(S(=O)(=O)N2CCOC23CCN(C(C)C)CC3)cc1 [Compound C0133M],83.2,96.6,152.4,,,,,,,139.4,72.4,214.8
COC(=O)c1ccc(S(=O)(=O)N2CCC3(CC2)OCCN3S(=O)(=O)c2ccc(C(=O)OC)cc2)cc1 [Compound C0028],55.6,60.5,472.3,,,,93.9,132.4,78.4,,,
COc1ccc(S(=O)(=O)N2CCC3(OCCN3S(=O)(=O)c3ccc(OC)cc3)C3CCCCC32)cc1 (stereo not drawn) [Compound C0144M],108.3,90.8,137.9,,,,186.3,295.9,125.9,,,
COc1ccccc1CCC(=O)CC1c2c(cc3c(c2OC)OCO3)CC[N+]1(C)C (stereo not drawn) [Compound B0045],82.6,83.4,257.1,,,,129.3,193.1,83.8,,,
COc1ccc(S(=O)(=O)N2CCOC23CCNCC3)cc1 [Compound C0027],121.3,115.0,164.5,,,,,,,233.2,72.2,313.9
CC(=O)c1ccc(C(=O)N2CCOC23CCN(S(=O)(=O)c2ccc(C(C)=O)cc2)CC3)cc1 [Compound C0053],71.7,67.5,211.6,,,,104.0,157.2,93.1,,,
CC1CN(CC(O)COc2ccc(Br)c(F)c2)CC(C)O1 (stereo not drawn) [Compound A0041],108.4,102.8,68.5,,,,212.7,283.6,50.6,,,
O=S(=O)(c1ccc(C(F)(F)F)cc1)N1CCC2(CC1)OCCN2S(=O)(=O)c1ccc(C(F)(F)F)cc1 [Compound C0012],54.8,86.7,280.7,,,,96.8,224.8,184.4,,,
CC(=O)c1ccc(S(=O)(=O)N2CCC3(CC2)OCCN3S(C)(=O)=O)cc1 [Compound C0056],68.0,83.0,196.1,,,,,,,98.6,86.3,193.4
COc1ccc(NC(=O)N2CCC3(CC2)OCCN3S(=O)(=O)c2ccc(OC)cc2)cc1 [Compound C0041],110.1,111.7,575.3,,,,186.1,244.4,95.5,,,
COc1c2c(cc3c1C(CC(=O)Cc1ccc(C#N)cc1)[N+](C)(C)CC3)OCO2 (stereo not drawn) [Compound B0012],97.8,79.4,278.5,,,,167.4,212.0,145.1,,,
CC1CCC(C(C)C)C(OCC(O)CN2CCN(CCN3CCOCC3)CC2)C1 (stereo not drawn) [Compound A0011],158.2,124.9,177.4,,,,236.3,287.5,47.0,,,
COc1c2c(cc3c1C(CC(=O)Cc1ccccc1C)N(C)CC3)OCO2 (stereo not drawn) [Compound B0053],94.8,137.0,809.0,,,,160.2,299.8,134.3,,,
O=S(=O)(c1csc2ccccc12)N1CCC2(CC1)OCCN2S(=O)(=O)c1csc2ccccc12 [Compound C0150M],97.2,129.8,173.2,,,,167.1,423.1,93.4,,,
Cc1cccc(OCC(O)CN2CC(C)OC(C)C2)c1 (stereo not drawn) [Compound A0030],75.5,113.2,628.1,,,,133.4,287.8,165.2,,,
COc1c2c(cc3c1C(CC(=O)Cc1ccccc1F)[N+](C)(C)CC3)OCO2 (stereo not drawn) [Compound B0055],91.8,133.1,446.8,,,,162.1,338.5,117.5,,,
COc1c2c(cc3c1C(CC(O)CCc1ccccc1)N(C)CC3)OCO2 (stereo not drawn) [Compound B0051],68.4,76.7,263.9,,,,115.6,167.9,43.8,,,
